Reference: patent publication US8232301B2, “Pesticidal compositions” (Dow AgroScience, LLC., priority 2008, dated 2012)
Several values for one entry are separate records, joined by “and”; a condition that tells them apart may be missing. Equal values may be shown once. Marks after values point to notes of the source that are not given here.

Test system: green peach aphid, Myzus persicae (GPA)
Assay: Foliar spray test of Compound A, nonionic surfactant and AMS combinations on green peach aphid on cabbage
Assay type: in vivo
Settings: for Aphid count/plant / % Control (negative values to 0) / Calculated Colby Value: Rep 1-4; for T-Test Results (synergy mark): measured vs Colby, two-sided T-test
Protocol: Materials and Methods. Solutions of nonionic surfactant (Atlox 4991 0.125% and 0.25% V/V; 1250 and 2500 ppm respectively) and ammonium sulfate (“AMS” 10,200 and 20,400 ppm) were prepared in 500 mL of water. Water used to prepare all solutions was obtained from a Milli Q water purification system. Combination mixtures were created by adding surfactant to aliquots of AMS and water solution to create all two-way combinations of surfactant and AMS. A 500 ppm stock solution of Compound A in water was prepared by adding […] of Compound A to 40 mL of water. 62.4 μL of this 500 ppm solution was added to 20 mL of each AMS, surfactant, or surfactant and AMS solution to create 1.56 ppm Compound A high rate solutions. These high rate solutions of Compound A and surfactant, Compound A and AMS, or Compound A, AMS, and surfactant, were serially diluted in two-fold increments with the appropriate surfactant, AMS, or AMS and surfactant combination solutions, to create a dilution series from 1.56 to 0.19 ppm. A dilution series of Compound A in water with no surfactant or AMS was also prepared. All solutions of surfactant, AMS, or surfactant and AMS, were tested without Compound A. Two-to-three-leaf stage cabbage plants were infested on day 1 with green peach aphid, Myzus persicae (GPA), by transferring aphid infested foliage to each plant. A uniform number of aphids were transferred based on visual inspection of the infested foliage. Plants were sprayed on all surfaces to wet using a hand held aspirator type sprayer on day 2. Four replicates of each treatment combination were sprayed and all stages of live aphids on each plant were counted on day 4. Data were converted to percent control based on the number of aphids in the unsprayed check treatment. Counts of aphids on unsprayed check plants were used to calculate control for surfactant and AMS solutions. Additionally, the average aphid count on the unsprayed check treatment was used to calculate percent control values for plants sprayed with only Compound A. Aphid counts from plants treated with combinations of Compound A and AMS, surfactant, or AMS and surfactant, were converted to percent control by using the average aphid count from the unsprayed check treatment. Negative percent control values were changed to zero percent control values before assessing treatment combinations for synergy. […] Measured efficacy (percent Control) data were compared to calculated Colby values (Colby, S. R. 1967. Calculating Synergistic and Antagonistic Responses of Herbicide Combinations. Weeds 15:20-22) using a two-sided T-test (Minitab).

[1] = A 0.19 ppm + NS 1250 ppm + AMS 10,200 ppm
[2] = A 0.19 ppm + NS 1250 ppm + AMS 20,400 ppm
[3] = A 0.19 ppm + NS 2500 ppm + AMS 10,200 ppm
[4] = A 0.19 ppm + NS 2500 ppm + AMS 20,400 ppm
[5] = treatment #12: A 0.19 ppm + AMS 20,400 ppm
[6] = treatment #14: A 0.19 ppm + NS 1250 ppm + AMS 20,400 ppm
[7] = treatment #15: A 0.19 ppm + NS 2500 ppm + AMS 20,400 ppm
[8] = treatment #16: A 0.19 ppm + NS 1250 ppm + AMS 10,200 ppm

`N.N.O=S(=O)(O)O` [AMS, ammonium sulfate] was tested, and the Aphid count/plant (treatment #4: AMS 20,400 ppm alone) was 35 and 36 and 38 and 31 and the “% Control (negative values to 0)” value (treatment #5: AMS 10,200 ppm alone) was 0.0%.
`CC(c1ccc(C(F)(F)F)nc1)S(C)(=O)=NC#N` (stereo not drawn) [Compound A] was tested, and the “% Control Colby Calculated, Mean” value (A 0.19 ppm + AMS 10,200 ppm) was 43%, the “% Control Measured, Mean” value (A 0.19 ppm + AMS 10,200 ppm) was 32% and the “% Control Colby Calculated, Mean” value (A 0.19 ppm + AMS 20,400 ppm) was 55.58%. The “% Control Measured, Mean” value (A 0.19 ppm + AMS 20,400 ppm) was 38.3%, the “% Control Colby Calculated, Mean” value (A 0.19 ppm + NS 1250 ppm) was 58.28% and the “% Control Measured, Mean” value (A 0.19 ppm + NS 1250 ppm) was 76.4%. The “% Control Colby Calculated, Mean” value [1] was 58.28%, the “% Control Measured, Mean” value [1] was 93.28% and the “T-Test Results (synergy mark)” value [1] was “T = 6.60 P = 0.0027***”. The “% Control Colby Calculated, Mean” value [2] was 60.1%, the “% Control Measured, Mean” value [2] was 91.1% and the “T-Test Results (synergy mark)” value [2] was “T = 3.26 P = 0.022***”. For the same compound, the “% Control Colby Calculated, Mean” value (A 0.19 ppm + NS 2500 ppm) was 57%, the “% Control Measured, Mean” value (A 0.19 ppm + NS 2500 ppm) was 63.7% and the “% Control Colby Calculated, Mean” value [3] was 57%. For the same compound, the “% Control Measured, Mean” value [3] was 80%, the “% Control Colby Calculated, Mean” value [4] was 63.3% and the “% Control Measured, Mean” value [4] was 96.33%. For the same compound, the “T-Test Results (synergy mark)” value [4] was “T = 3.68 P = 0.035***”, the synergy (A 0.19 ppm combined with AMS and surfactant, three of 4 possible mixtures statistically supported) was “significant synergy” and the synergy (A 0.19 ppm combined with surfactant or AMS (two-way mixtures), 0.05% level) was “no instances where synergy could be supported”. For the same compound, the efficacy (A at concentrations of 1.56, 0.78 and 0.39, not combined with surfactant or AMS) was “great enough that identifying synergy was not practical”, the “% Control (negative values to 0)” value (treatment #10: A 0.19 ppm + NS 1250 ppm) was 85.4% and 98.1% and 64.3% and 57.9% and the “Calculated Colby Value” (treatment #10: A 0.19 ppm + NS 1250 ppm, predicted % control) was 53.6% and 63.2% and 60.2% and 56.1%. The Aphid count/plant [5] was 19 and 24 and 20, the “Calculated Colby Value” [5] was 56.5% and 64.4% and 43.9% and 57.5% and the Aphid count/plant (treatment #13: A 0.19 ppm + AMS 10,200 ppm) was 23 and 30 and 28 and 17. For the same compound, the “% Control (negative values to 0)” value [6] was 97.9% and 98.1% and 100.0% and 68.4%, the “Calculated Colby Value” [6] was 53.6% and 63.2% and 48.7% and 74.8% and the “% Control (negative values to 0)” value [7] was 95.8% and 100.0% and 89.5%. The “Calculated Colby Value” [7] was 60.2% and 63.2% and 43.9% and 85.8%, the “% Control (negative values to 0)” value [8] was 97.9% and 96.3% and 100.0% and 78.9% and the “Calculated Colby Value” [8] was 53.6% and 63.2% and 60.2% and 56.1%. For the same compound, the “% Control (negative values to 0)” value (treatment #17: A 0.19 ppm + NS 2500 ppm + AMS 10,200 ppm) was 72.9% and 98.1% and 85.7% and 63.2%.
